In one experiment the target is T1, human 17βHSD type 3 (Homo sapiens, UniProt P37058).
T1 construct: A full-length cDNA encoding human 17βHSD type 3; made in house; host or cells: human fetus kidney-derived 293 cells (transient, 24 h); supernatant of disrupted cells
T1 sequence (P37058 1-310): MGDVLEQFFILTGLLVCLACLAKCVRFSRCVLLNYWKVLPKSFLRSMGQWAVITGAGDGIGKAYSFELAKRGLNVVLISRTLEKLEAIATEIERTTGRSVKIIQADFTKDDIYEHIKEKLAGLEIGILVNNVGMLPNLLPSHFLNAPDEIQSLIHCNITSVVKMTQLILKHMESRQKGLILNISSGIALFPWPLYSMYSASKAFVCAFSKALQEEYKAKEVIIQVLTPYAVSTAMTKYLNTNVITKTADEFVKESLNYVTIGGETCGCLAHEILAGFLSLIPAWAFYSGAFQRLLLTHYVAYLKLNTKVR
The experiment can be described thus: Measurement of enzyme activity of human 17βHSD type 3. The experiment is classed as biochemical. As to conditions: enzyme source: supernatant of transformed 293 cells; read-out: Type3 IC50. The source says:
(§1) An excellent selective inhibitory activity against human 17βHSD type 5 of the compounds of the present invention was confirmed by the test method described below. In this connection, the test may be carried out by referring to the details of test procedure described in Maniatis, T. et al., Molecular Cloning—A Laboratory Manual Cold Spring Harbor Laboratory, NY (1982) and the like. In addition, genes encoding human 17βHSD type5 and type3 described in Sections 1 and 2 below, and human 17βHSD type 5 and type 3 may be obtained by the method described in Molecular Endocrinology, 1997, 11(13), 1971-1984.
2. Isolation of Gene Encoding Human 17βHSD Type 3 and Enzyme Purification
A full-length cDNA encoding human 17βHSD type 3 used in the pharmacological test of the present invention was obtained by the PCR method using a cDNA derived from human testis as a template. The nucleotide sequence of the obtained cDNA was analyzed by the dideoxyterminator method, and the clone matched with the known human 17βHSD type 3 sequence (GenBank accession No. BCO34281) was selected. Subsequently, human fetus kidney-derived cell line, 293 cells, were transformed with a plasmid containing the cDNA, and the cells were collected 24 hours later. The collected cells were then disrupted in a phosphate buffer solution containing 5% glycerol (500 μL per 100 mm-dish of a phosphate buffer solution (pH 7.4, 200 mM) containing 5% glycerol) and centrifuged (16000 rpm, 5 min, 4° C.), and the supernatant was used as an enzyme source.
(§2) 3. Measurement of Enzyme Activities of Human 17βHSD Type 5 and Type 3
(§3) Enzyme activity was measured referring to Trevor M. Penning, et al., Biochem. J., 351, 67-77, (2000). Specifically, using a 100 mM potassium phosphate buffer (pH 6.0), (1) the enzyme purified in Section 1 at a final concentration of 10 μg/mL, (2) androstenedione at a final concentration of 300 nM, (3) NADPH at a final concentration of 200 μM, and (4) a test substance, were mixed to react at room temperature for 2 hours, and then the amount of testosterone produced was measured using DELFIA (registered trademark) Testosterone Reagents R050-201 (manufactured by PerkinElmer). The measurement was performed in accordance with the attached instructions. The amount of reduction of testosterone production in the presence of the compound was obtained as a relative value with respect to the amount of testosterone in the absence of the enzyme set at 0% and the amount of testosterone produced in the absence of the compound set at 100%. Then, IC50 values were calculated by the Logistic regression method.

Experiment [1] concerns the target T2, human 17βHSD type 5-expressing LNCaP cells (Homo sapiens, UniProt P42330).
T2 sequence (P42330 1-323): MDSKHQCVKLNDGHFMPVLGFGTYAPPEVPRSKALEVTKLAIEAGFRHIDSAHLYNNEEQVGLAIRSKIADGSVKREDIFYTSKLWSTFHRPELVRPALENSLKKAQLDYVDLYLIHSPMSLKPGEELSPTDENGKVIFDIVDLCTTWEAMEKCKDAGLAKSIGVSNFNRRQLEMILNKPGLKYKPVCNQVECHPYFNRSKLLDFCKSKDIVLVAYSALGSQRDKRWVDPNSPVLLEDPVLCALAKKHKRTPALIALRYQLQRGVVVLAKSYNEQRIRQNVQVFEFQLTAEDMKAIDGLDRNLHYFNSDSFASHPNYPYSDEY
The experiment can be described thus: Cell growth inhibitory activity using LNCaP cells expressing human 17βHSD type 5 (androstenedione-stimulated, CellTiter-Glo). The class given is cell-based. Conditions: androstenedione 10 nM, culturing for 7 days; read-out: LNCaP-17β5 IC50. On the procedure: Subsequently, LNCaP cells expressing human 17βHSD type 5 were constructed from a human prostate cancer-derived cell line, LNCaP cells, and a cell growth inhibitory activity of the compound of the present invention was evaluated.
4. Construction of LNCaP Cells Expressing Human 17βHSD Type 5
A full-length cDNA encoding human 17βHSD type 5 used in the pharmacological test of the present invention was obtained by the PCR method using a cDNA derived from a human lung cancer-derived cell line, A549 cells, as a template. The nucleotide sequence of the obtained cDNA was analyzed by the dideoxyterminator method, and the clone matched with the known human 17βHSD type 5 sequence (GenBank accession No. NM_003739) was selected. The human prostate cancer-derived cell line LNCaP cells were transformed with a plasmid containing the cDNA and the cell line showing stable expression was obtained.
5. Measurement of Cell Growth Capability Using LNCaP Cells Expressing Human 17βHSD Type 5
9000 cells/well of the transformed cells obtained in Section 4 above were seeded in a 96-well plate and cultured overnight. Then, androstenedione, in conjunction with a test compound, was added thereto at a final concentration of 10 nM, followed by culturing for 7 days. After the culturing, number of the cells was counted using a CellTiter-Glo (registered trademark) Luminescent Cell Viability Assay (Promega). The CellTiter-Glo (registered trademark) Luminescent Cell Viability Assay is a reagent that measures the number of the cells by monitoring an intracellular ATP level from the luminescence intensity by luciferase. The experimental manipulation was carried out in accordance with the attached instructions. The cell growth inhibitory activity in the presence of a test compound was calculated as a relative value with respect to the number of the cells in the absence of androstenedione set at proliferation of 0%, and the number of the cells in the presence of androstenedione and in the absence of the test compound set at proliferation of 100%. Then, IC50 values were calculated by the Logistic regression method.

The next experiment addresses T3, human 17βHSD type 5 (Homo sapiens, UniProt P42330).
T3 construct: A full-length cDNA encoding human 17βHSD type 5; GST (cleaved yes); made in house; host or cells: Escherichia coli BL21
T3 sequence (P42330 1-323): T2 sequence (P42330 1-323)
The experiment in a line: Measurement of enzyme activity of human 17βHSD type 5 (testosterone production from androstenedione). The class given is biochemical. As to conditions: purified enzyme 10 μg/mL, androstenedione 300 nM, NADPH 200 μM, pH 6.0, room temperature 2 hours; read-out: Type5 IC50.
Description: as §1
1. Isolation of Gene Encoding Human 17βHSD Type 5 and Enzyme Purification
A full-length cDNA encoding human 17βHSD type 5 used in the pharmacological test of the present invention was obtained by the PCR method using a cDNA derived from a human lung cancer-derived cell line, A549 cells as a template. The nucleotide sequence of the obtained cDNA was analyzed by the dideoxyterminator method, and the clone matched with the known human 17βHSD type 5 sequence (GenBank accession No. NM_003739) was selected. Escherichia coli BL21 was transformed with a plasmid containing the cDNA and cultured on a large scale. The proteins were purified by using GSTrapFF column (manufactured by Amersham) and PreScissionProtease (manufactured by Amersham). The purification method was carried out in accordance with the instructions attached to the GSTrapFF column.
as §2, §3

The subject of the next experiment is 5α-reductase. As to conditions: patients with BPH, after administration of finasteride; cited from earlier work.

The structures appear in SMILES notation.

In general, IC50 refers to the midpoint of a concentration-inhibition curve. As to `N#Cc1ccc2c(ccn2-c2cccc(C(=O)O)c2)c1` [Example 1, 3-(5-cyano-1H-indol-1-yl) benzoic acid], the results for the IC50 on human 17βHSD type 3 and on human 17βHSD type 5 were above 10000 nM and 200 nM, respectively. In addition, the GI50 in experiment [1] is 6680 nM.
The matching figures for `O=C(O)c1cccc(-n2cc(-c3ccccc3)c3cc(C(F)(F)F)ccc32)c1` [Example 6]: 1800 nM, 50 nM and 46 nM.
The matching figures for `O=C(O)c1cccc(-n2c(-c3ccccc3)nc3cc(C(F)(F)F)ccc32)c1` [Example 17]: 6400 nM, 180 nM and 66 nM.
With `O=C(O)c1cccc(-n2cnc3cc(C(F)(F)F)ccc32)c1` [Example 20], the values for the concentration for half-maximal inhibition (IC50) at human 17βHSD type 3 and at human 17βHSD type 5 were 7300 nM and 120 nM, respectively. Moreover, the GI50 in experiment [1] turned out to be 101 nM.
For `Cc1nc2cc(C(F)(F)F)ccc2n1-c1cccc(C(=O)O)c1` [Example 21] the same measures were 4700 nM, 110 nM and 102 nM.
Consider `COc1nc2cc(C(F)(F)F)ccc2n1-c1cccc(C(=O)O)c1` [Example 32], for which the GI50 in experiment [1] was found to be 46 nM. On human 17βHSD type 5, the IC50 amounted to 120 nM.
On to `O=C(O)c1cccc(-n2c(Cc3ccccc3)nc3cc(C(F)(F)F)ccc32)c1` [Example 38], for which the IC50 on human 17βHSD type 3 was above 10000 nM; at human 17βHSD type 5, 96 nM. The GI50 in experiment [1] amounted to 45 nM.
As for `O=C(O)c1cccc(-n2c(COc3ccccc3)nc3cc(C(F)(F)F)ccc32)c1` [Example 44], in experiment [1], the GI50 is 34 nM. For the same molecule, the IC50 at human 17βHSD type 5 was found to be 40 nM.
In the case of `COCCc1cn(-c2cccc(C(=O)O)c2)c2ccc(C(F)(F)F)cc12` [Example 47, 3-[3-(2-methoxyethyl)-5-(trifluoromethyl)-1H-indol-1-yl]benzoic acid], the values for the IC50 on human 17βHSD type 3 and at human 17βHSD type 5 were 2500 nM and 180 nM, respectively. Besides, the GI50 in experiment [1] turned out to be 92 nM.
For `O=C(O)c1cccc(-n2c(C(F)(F)F)nc3cc(C(F)(F)F)ccc32)c1` [Example 54, 3-[2,5-bis(trifluoromethyl)-1H-benzimidazol-1-yl]benzoic acid] the same measures were 3200 nM, 70 nM and 141 nM.
Turning to `CC(C)(C)NC(=O)[C@H]1CC[C@H]2[C@@H]3CC[C@H]4NC(=O)C=C[C@]4(C)[C@H]3CC[C@]12C` [finasteride], in the experiment on 5α-reductase, the “concentration of DHT in the prostate relative to the concentration before the administration” value was “about 20%” and the “increase of the concentration of testosterone in the prostate” value was 4 fold.
